Columns and labels:
[1] = molecular target: USP1/UAF1 (Homo sapiens, UniProt O94782); assay: Assay on USP1/UAF1 enzymatic inhibitory activity (Ub-Rhodamine); assay type: biochemical; conditions: USP1/UAF1 protein 10 nM, Ub-Rhodamine 300 nM, 30 min pre-incubation, 90 min reaction
Method: A USP1/UAF1 protein solution (with a concentration of 10 nM) was added to assay wells at 10 µL/well, and different compounds dissolved in DMSO were separately added to the assay wells using a nanoliter pipettor, such that the final concentrations of the compounds were 1000 nM-0.24 nM. The wells were set in duplicate, and a control well was set. After incubation of the system described above at room temperature for 30 min, Ub-Rhodamine (with a concentration of 300 nM) was added to the assay wells at 10 µL/well. The mixtures were reacted at room temperature for 90 min, and then the plate was read using a PerkinElmer Envision multifunctional microplate reader (Ex. 490 nm/Em. 520 nm). IC50 was calculated by four-parameter fitting.

[2] = system: MDA-MB-436 cells; assay: Assay on inhibitory activity for MDA-MB-436 cell proliferation (CCK-8); assay type: cell-based; conditions: Homo sapiens, 168 h, 7 days of incubation, CCK-8, absorbance at 450 nm
Method: MDA-MB-436 cells in a good growth state were collected into a centrifuge tube, adjusted to a cell density of 10^4 cells/mL, and seeded in a 96-well plate (100 µL/well), and the plate was incubated overnight in a cell incubator. Compounds were added using a nanoliter pipettor, such that the final concentrations of the compounds were 1000 nM-0.457 nM. The wells were set in duplicate, and a control well was set. After another 7 days of incubation in the cell incubator, the detection reagent CCK-8 (manufacturer: Dojindo Laboratories; 10 µL/well) was added. After 2 h of incubation in the cell incubator, absorbance values were detected at 450 nm using an Envision microplate reader, the four-parameter analysis was performed, the dose-response curves were fit, and IC50 was calculated. The experimental results are shown in Table 1, where A represents 0 nM < IC50 ≤ 50 nM; B represents 50 nM < IC50 ≤ 100 nM; C represents 100 nM < IC50 ≤ 1000 nM; and D represents 1000 nM < IC50. Table 1. Inhibitory activity for MDA-MB-436 cell proliferation

Sequence of USP1/UAF1 (O94782 whole entry): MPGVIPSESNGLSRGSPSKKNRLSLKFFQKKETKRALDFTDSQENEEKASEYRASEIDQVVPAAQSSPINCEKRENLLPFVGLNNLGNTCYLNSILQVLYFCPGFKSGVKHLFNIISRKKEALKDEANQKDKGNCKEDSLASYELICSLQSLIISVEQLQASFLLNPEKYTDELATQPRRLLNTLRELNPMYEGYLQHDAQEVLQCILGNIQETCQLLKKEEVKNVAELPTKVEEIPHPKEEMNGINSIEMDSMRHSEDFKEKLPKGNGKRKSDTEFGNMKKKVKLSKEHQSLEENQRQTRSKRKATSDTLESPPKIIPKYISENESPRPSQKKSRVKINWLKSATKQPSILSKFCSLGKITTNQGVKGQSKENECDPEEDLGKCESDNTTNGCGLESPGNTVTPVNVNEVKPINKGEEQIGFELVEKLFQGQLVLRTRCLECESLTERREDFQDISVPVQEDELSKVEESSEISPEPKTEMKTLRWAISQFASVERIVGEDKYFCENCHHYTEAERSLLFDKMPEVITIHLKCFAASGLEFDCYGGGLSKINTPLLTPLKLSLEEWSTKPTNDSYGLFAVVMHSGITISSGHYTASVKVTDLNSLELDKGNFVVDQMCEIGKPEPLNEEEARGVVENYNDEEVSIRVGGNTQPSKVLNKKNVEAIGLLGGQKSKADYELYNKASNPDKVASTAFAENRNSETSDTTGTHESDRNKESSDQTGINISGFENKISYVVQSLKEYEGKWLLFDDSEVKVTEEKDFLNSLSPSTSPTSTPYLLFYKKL
Sequence of USP1/UAF1 (Q8TAF3 whole entry partner): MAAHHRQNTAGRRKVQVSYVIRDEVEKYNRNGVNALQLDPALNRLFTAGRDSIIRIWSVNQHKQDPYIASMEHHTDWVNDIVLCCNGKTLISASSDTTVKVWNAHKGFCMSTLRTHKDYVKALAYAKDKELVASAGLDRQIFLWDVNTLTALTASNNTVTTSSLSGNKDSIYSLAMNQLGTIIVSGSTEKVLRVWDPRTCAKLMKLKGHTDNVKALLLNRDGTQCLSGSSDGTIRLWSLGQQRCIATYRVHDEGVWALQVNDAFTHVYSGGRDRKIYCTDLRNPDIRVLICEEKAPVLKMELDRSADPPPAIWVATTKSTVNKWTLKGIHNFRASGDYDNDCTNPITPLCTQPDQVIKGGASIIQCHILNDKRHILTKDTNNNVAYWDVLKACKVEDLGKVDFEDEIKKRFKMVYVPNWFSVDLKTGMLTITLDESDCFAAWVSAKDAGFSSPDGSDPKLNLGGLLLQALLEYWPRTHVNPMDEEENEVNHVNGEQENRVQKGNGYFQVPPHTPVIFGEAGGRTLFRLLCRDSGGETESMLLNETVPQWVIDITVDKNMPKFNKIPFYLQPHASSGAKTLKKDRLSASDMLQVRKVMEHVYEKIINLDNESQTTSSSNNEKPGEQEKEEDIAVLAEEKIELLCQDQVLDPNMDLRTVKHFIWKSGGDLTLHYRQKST

SMILES	IC50 [1]	IC50 [2]
[2H]C([2H])([2H])n1c(=O)n(Cc2ccc(-n3nc(C(C)(F)F)cc3C)cc2)c2c(F)c(-c3c(OC)ncnc3C3CC3)ncc21 [Example 17]	50 to 100 nM	50 to 100 nM
COc1ncnc(C2CC2)c1-c1ncc2c(c1F)n(Cc1ccc(-c3nc(C(F)(F)F)cn3C)cc1)c(=O)n2C [Example 3]	< 50 nM	< 50 nM
[2H]C([2H])([2H])n1c(=O)n(Cc2ccc(-c3nc(C(F)(F)F)cn3C(C)C)cc2)c2c(F)c(-c3c(OC)ncnc3C3CC3)ncc21 [Example 16]	< 50 nM	< 50 nM
[2H]C([2H])([2H])n1c(=O)n(Cc2ccc(-n3nc(C(F)(F)F)cc3C)cc2)c2c(F)c(-c3c(OC)ncnc3C3CC3)ncc21 [Example 15]	< 50 nM	50 to 100 nM
